Values of other authors, collected in patent US6569857B1, “Dietary supplement” (Drugtech Corporation, priority 1999, dated 2003).

What was measured:
[1] = test system: malondialdehyde concentrations; details: oral vitamin E, male infertility patients; high levels are indicia of decreased sperm motility
[2] = test system: spermatozoal zona binding; details: oral dosing over a three month period, male infertility

increase in spermatozoal zona binding [2]: 50%
Substance: vitamin E
malondialdehyde concentrations [1]: significantly decreased
